# In patent US20140011755A1, “Cardiac Glycosides for Treating Autoimmune Disease” (Department of Veterans Affairs, priority 2010, published 2014):
# Entries after “also recorded” stand apart in the source; their conditions may differ. Read-outs that look alike come from different tables or passages of the source.
# Assays:
# [1] = cited from earlier work; for Half-life: in vivo; for Onset (m): onset of action; for Peak: time to maximal effect
# [2] = tested on: collagen-induced arthritis (CIA); assay type: in vivo, DBA1/J mice; conditions: for average clinical arthritis scores compared to vehicle, prevention study: first dose one day prior to boost, 0.3 mg/kg digitoxin, 0.03 mg/kg ouabain, […] proscillaridin, 0.35 mg/kg digoxin, […] bufalin, 15 mice per group
# [3] = tested on: TNF-mediated NFκB activity in HeLa cells; experiment: NFκB luciferase reporter assay in TNF-stimulated HeLa cells; assay type: cell-based; conditions: pre-treatment 6 hours with 0-500 nM, 50 ng/mL TNF
# Description: FIG. 8. […] Values represent mean light units produced. Error bars represent SEM, and statistical significance was determined by unpaired T-test. Single and double asterisks represent P-values of 0.01 or 0.001, respectively. […] Samples were harvested at designated time points and were fractionated into nuclear and cytoplasmic lysates (Pierce). Lysates were quantified using BCA (Pierce), and were equally loaded according to total protein. Membranes were probed for levels of nuclear phospho-p65 (ReIA), phospho-ReIB, and histone (histone served as loading control and fractionation method control) and cytoplasmic degradation of IκBα (beta-tubulin served as loading control and fractionation method control).
# HeLa cells were co-transfected with the reporter pNFκB-luc and control vector pTAL (Renilla) for 18 h prior to incubation with 0-500 nM cardiac glycoside for 6 h. Cells are stimulated with 50 ng/mL TNF. […] FIG. 8 B).
# [4] = CHCI3/16% aqueous methanol (MeOH); cited from earlier work
# TNF, IL-6 and IL-1beta = experiment: Serum cytokine ELISA in CIA treatment groups; assay type: in vivo; conditions: serum from 3 mice per treatment group, ELISA in triplicate
# Excerpt: FIG. 9. Serum cytokine levels are similar between vehicle and cardiac glycoside treatment groups. […] The unpaired student t-test was used to assess significance.
# T cell receptor = assay type: cell-based, mice
# Description: (§1) Activity was monitored by ^3H-thymidine incorporation as a read-out for proliferation. […] Cell type(s) in the splenocyte population responsive to therapeutic concentrations of cardiac glycoside were determined by identifying the population of cells that responded to a dose-dependent decrease in activity in the presence of stimulant, defined as ligand(s) binding to cognate receptor(s). Activity was analyzed by: ^3H-thymidine or BrdU incorporation to monitor proliferation or by ELISA to monitor cytokine production. Splenic T lymphocytes were isolated by negative selection (MACS, Miltinyi Biotec) and are stimulated with PMA, ConA or through the TCR with anti-CD3/anti-CD28 Dynabeads (Invitrogen) and collagen II (all non-TNFR receptors/pathways). […] Peritoneal and bone marrow-derived macrophages were isolated from CIA mice in the presence of M-CSF growth factor and were stimulated with TNF and CD40 ligand (CD40L). […] Splenic B lymphocytes were isolated by negative selection (MACS, Miltinyi Biotec) and were stimulated with BAFF (BLyS), CD40L or through the BCR with anti-IgM u-chain specific antibodies.
# rheumatoid arthritis = conditions: cited from earlier work
# [5] = Serum concentration obtained with experimental dosing regimen, mouse; assay type: in vivo; conditions: 0.2 mg/kg per diem, i.p., experimentally determined
# Description: Dosing regimens in humans vary according to the cardiac glycoside and constitution thereof. Table 3 depicts representative dosing regimens reported in the literature compared to experimental regiments used in mice that are representative of human dosing. Successful dosing detailed in this application includes but is not limited to 0.03-0.4 mg/kg., or from 0.001 to 5 mg/kg.
# [6] = tested on: collagen-induced arthritis (CIA) joints; assay type: in vivo, DBA1/J mice; conditions: cross-sectioned ankle joints, CIA prevention groups
# Description: FIG. 7. Cardiac glycosides reduce joint pathology in the CIA mouse model for rheumatoid arthritis. Blinded scoring was performed on histologic sections of joints harvested from mice at the end of a CIA prevention study (A-C). Joints derived from three representative mice belonging to each prevention group (A-C) were decalcified, fixed and stained with tolidine blue, followed by scoring by an examiner blinded to treatment status for the severity of synovitis (inflammation), pannus (growth of the synovial lining), and erosions of bone. (D-G) Joints derived from three representative mice belonging to each prevention group were decalcified, fixed, and stained with hematoxylin and eosin. Cross-sectioned ankle joints from vehicle (D), digitoxin (E), ouabain (F) and proscillaridin (G) treated mice are presented. Error bars represent SEM, and asterisks indicate P-values less than 0.05 by Mann-Whitney test.
# In treatment studies, mice were randomly enrolled in treatment groups and treatment commenced when the average clinical score was at or above 2. […] Daily dosing commenced upon enrollment at the abovementioned concentrations. […] Double-blinded histopathology scoring was conducted of cross-sectioned joints taken from cardiac glycoside and vehicle recipients. […] The results obtained from these animal studies indicate that cardiac glycosides are effective at reducing the clinical manifestations of disease and reducing joint pathology in mice with collagen arthritis.
# The effects of the different cardiac glycoside treatments on CIA pathology was analyzed by histological scoring. Inflammatory cell infiltrate, synovial hyperplasia, pannus formation and articular cartilage and bone deterioration were evaluated in sectioned paws of treated mice at specific time-points throughout the disease course. […] The ELISA was developed and read using BD ELISA development kit. […]
# CD40 = molecular target: T1, CD40 (Mus musculus, UniProt P27512); assay type: cell-based, mice; conditions: pre-treatment with 3.3 or 33 nM
# T1 construct: Peritoneal and bone marrow-derived macrophages were isolated from CIA mice; endogenous in cells; host or cells: peritoneal and bone marrow-derived macrophages from CIA mice
# T1 sequence (P27512 20-289): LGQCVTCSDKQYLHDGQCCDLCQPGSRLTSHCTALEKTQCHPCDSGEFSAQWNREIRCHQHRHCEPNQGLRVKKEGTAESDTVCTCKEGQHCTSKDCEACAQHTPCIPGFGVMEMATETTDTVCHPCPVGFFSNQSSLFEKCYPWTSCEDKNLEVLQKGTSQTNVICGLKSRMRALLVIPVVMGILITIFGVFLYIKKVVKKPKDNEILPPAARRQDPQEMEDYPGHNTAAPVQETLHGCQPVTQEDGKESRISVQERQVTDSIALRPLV
# Description: as §1
# TNFR = assay type: cell-based, mice; conditions: pre-treatment with 3.3 or 33 nM
# Description: as §1
# [7] = injectable versus other formulations; cited from earlier work
# [8] = tested on: anti-type II collagen antibodies; assay type: in vivo; conditions: sera of 6 mice per prevention group, ANOVA
# Description: FIG. 10. Cardiac glycosides reduce immunoglobulin levels in CIA mice. ELISAs for anti-type II collagen antibodies were performed on sera derived from 6 representative mice of each prevention group (A, B). Isotype specific antibodies for IgG1 and IgG2a (A) and IgM (B) were utilized. […] Statistical analysis was performed using ANOVA and asterisks indicate points at which the P-values were less than 0.001.
# The effects of the different cardiac glycoside treatments on CIA pathology was analyzed by histological scoring. Inflammatory cell infiltrate, synovial hyperplasia, pannus formation and articular cartilage and bone deterioration were evaluated in sectioned paws of treated mice at specific time-points throughout the disease course. Histopathology scores of inflammation, pannus formation and bone and cartilage erosions were conducted by a blinded investigator on toludine blue-stained cross sections of fixed leg joints from representative mice in vehicle and glycoside groups. Pathology scoring for each of the three categories are on a scale of 0-4 with grade 0=normal, 1=mild inflammation, hyperplasia of the synovial lining, cartilage destruction without bone erosion, grades 2 to 4=increasing degrees of inflammatory cell infiltrate, synovial hyperplasia, pannus formation and cartilage and bone destruction. Error bars represent SEM and statistics were performed using the Mann-Whitney test. At the endpoint, mice are bled and serum is collected from representative mice and stored at −80 C until use. To determine anti-collagen II antibody levels and to characterize isotype prevalence, bovine collagen II (Chondrex) was coated O/N at 4 C on an ELISA plate, washed and incubated with 100 uL of 1:10 dilution of each serum sample (in triplicate) for 2 h at RT. Wells were washed and incubated with anti-mouse IgM u-chain specific (Jackson), anti-mouse IgG1, or anti-mouse IgG2a (Southern Biotech) for 1 h at RT. The ELISA was developed and read using BD ELISA development kit. Statistical analysis was performed using the two-tailed ANOVA and asterisks represent P-values less than 0.01.
# MRL-Ipr splenic B cells = experiment: ANA production by MRL-Ipr splenic B cells in vitro; assay type: cell-based, mice; conditions: B cells pre-treated with 0.8 nM mifepristone, digitoxin 33 nM
compound,measurement,setting,value
C[C@H]1O[C@@H](O[C@H]2CC[C@@]3(C)[C@H](CC[C@@H]4[C@@H]3C[C@@H](O)[C@]3(C)[C@@H](C5=CC(=O)OC5)CC[C@]43O)C2)C[C@H](O)[C@@H]1O[C@H]1C[C@H](O)[C@H](O[C@H]2C[C@H](O)[C@H](O[C@@H]3O[C@H](CO)[C@@H](O)[C@H](O)[C@H]3O)[C@@H](C)O2)[C@@H](C)O1 [Deslanoside],Half-life,[1],33 h
same,Onset (m),[1],10-30 m
same,Peak,[1],1 to 2 h
"C[C@H]1O[C@@H](O[C@H]2[C@@H](O)C[C@H](O[C@H]3[C@@H](O)C[C@H](O[C@H]4CC[C@@]5(C)[C@H](CC[C@@H]6[C@@H]5C[C@@H](O)[C@]5(C)[C@@H](C7=CC(=O)OC7)CC[C@]65O)C4)O[C@@H]3C)O[C@@H]2C)C[C@H](O)[C@@H]1O [Digoxin, digoxin]","average clinical arthritis scores compared to vehicle, prevention study",[2],significantly reduced
same,TNF-mediated NFκB activation (luciferase light units),[3],reduced TNF-mediated NFκB activation in a dose-dependent fashion
same,Partition Coefficient,[4],81.5
same,"Serum cytokine levels (TNF, IL-6 and IL-1beta) versus vehicle","TNF, IL-6 and IL-1beta",similar
same,proliferation of T cells in response to stimulation through the T cell receptor,T cell receptor,did not alter proliferation
same,Half-life,[1],36 h
CC(=O)O[C@H]1C[C@H](O[C@H]2[C@@H](O)C[C@H](O[C@H]3[C@@H](O)C[C@H](O[C@H]4CC[C@@]5(C)[C@H](CC[C@@H]6[C@@H]5C[C@@H](O)[C@]5(C)[C@@H](C7=CC(=O)OC7)CC[C@]65O)C4)O[C@@H]3C)O[C@@H]2C)O[C@H](C)[C@H]1O[C@@H]1O[C@H](CO)[C@@H](O)[C@H](O)[C@H]1O [Lanatoside C],Partition Coefficient,[4],16.2
CN(Cc1cnc2nc(N)nc(N)c2n1)c1ccc(C(=O)N[C@@H](CCC(=O)O)C(=O)O)cc1 [Methotrexate],patients having some response,rheumatoid arthritis,70%
same,onset of action,rheumatoid arthritis; rheumatoid arthritis patients,4-6 weeks
"C[C@@H]1O[C@@H](O[C@H]2C[C@@H](O)[C@]3(CO)[C@H]4[C@H](O)C[C@]5(C)[C@@H](C6=CC(=O)OC6)CC[C@]5(O)[C@@H]4CC[C@]3(O)C2)[C@H](O)[C@H](O)[C@H]1O [Ouabain, ouabain]","disease and inflammation (clinical score, paw thickness), dosing every three days i.p.","[2]; 0.9 mg/kg digitoxin or 0.6 mg/kg ouabain, i.p., days −3, 0, 3, 6, 9, 12 after boost",significantly less disease and inflammation
same,"onset of collagen arthritis, dosing every three days sublingual","[2]; 0.9 mg/kg digitoxin or 0.6 mg/kg ouabain, sublingual, days −3, 0, 3, 6, 9, 12 after boost",significantly inhibited the onset of collagen arthritis; also recorded: effective in preventing
same,"development of CIA (Mean Visual Arthritis Score, Mean Paw Thickness), prevention study","[2]; daily i.p. from the day prior to induction, digitoxin 0.3 mg/kg, ouabain 0.03 mg/kg, proscillaridin […]",prevented the development of CIA
same,"average clinical arthritis scores compared to vehicle, prevention study",[2],significantly reduced
same,prevention and treatment of collagen-induced arthritis (CIA),"[2]; murine model for rheumatoid arthritis, summary statement",potently prevent and treat
same,TNF-mediated NFκB activation (luciferase light units),[3],reduced TNF-mediated NFκB activation in a dose-dependent fashion
same,Serum conc.,[5],16 ng/mL
same,Partition Coefficient,[4],very low
same,immune cell infiltrate into the joints (hematoxylin and eosin),[6],decreased amounts of immune cell infiltrate
same,"Serum cytokine levels (TNF, IL-6 and IL-1beta) versus vehicle","TNF, IL-6 and IL-1beta",similar
same,proliferation of T cells in response to stimulation through the T cell receptor,"T cell receptor; non-TNFR family member, therapeutic concentrations",did not alter proliferation
same,CD40L-mediated activation of macrophage through CD40,CD40,inhibits
same,TNF-mediated activation of macrophage through TNFR,TNFR,inhibits
same,Half-life,[1],21 h
same,Onset (m),[1],5-10 m
same,Peak,[1],0.5 to 2 h
same,bioavailability by formulation,[7],higher bioavailability with injectable formulations
same,anti-type II collagen IgG1 level relative to vehicle,[8],reduced levels
same,anti-type II collagen IgM level relative to vehicle,[8],reduced levels
C[C@]12CC[C@H](O)C[C@H]1CC[C@@H]1[C@@H]2CC[C@]2(C)[C@@H](c3ccc(=O)oc3)CC[C@]12O [bufalin],"average clinical arthritis scores compared to vehicle, prevention study",[2],significantly reduced
same,TNF-mediated NFκB activation (luciferase light units),[3],reduced TNF-mediated NFκB activation in a dose-dependent fashion
same,"Serum cytokine levels (TNF, IL-6 and IL-1beta) versus vehicle","TNF, IL-6 and IL-1beta",similar
CC#C[C@]1(O)CC[C@H]2[C@@H]3CCC4=CC(=O)CCC4=C3[C@@H](c3ccc(N(C)C)cc3)C[C@@]21C [mifepristone],effect of pre-treatment on digitoxin-specific blockade of autoantibody production,MRL-Ipr splenic B cells,relieved
